Test results: ChEMBL document CHEMBL1933021, “Novel and selective spiroindoline-based inhibitors of Sky kinase” (Bioorg Med Chem Lett, 2012)
Converted amounts (≈) assume the structure as drawn. The source made the active and inactive calls. The calls are words filed in the database; no cut-off is given here.

Assays:
Tyro3 (Mus musculus) = experiment: Inhibition of mouse Sky kinase assessed as inhibition of src substrate phosphorylation by ELISA
[1] = Aqueous solubility of compound at pH 6.5; format: physicochemical
[2] = Half life in human liver microsomes; format: ADME, Microsome
[3] = Clearance in po dosed Sprague-Dawley rat; format: ADME, organism-based; details: in vivo
Rattus norvegicus = experiment: Volume of distribution at steady state in po dosed Sprague-Dawley rat; format: ADME, organism-based; details: in vivo
[4] = Permeability of the compound by PAMPA assay; format: ADME; details: read-out: permeability
Cytochrome P450 2D6 = Cytochrome P450 2D6 (Homo sapiens, UniProt P10635); experiment: Inhibition of CYP2D6 using dextromethorphan as substrate; format: ADME
Sequence of Cytochrome P450 2D6 (P10635 whole entry): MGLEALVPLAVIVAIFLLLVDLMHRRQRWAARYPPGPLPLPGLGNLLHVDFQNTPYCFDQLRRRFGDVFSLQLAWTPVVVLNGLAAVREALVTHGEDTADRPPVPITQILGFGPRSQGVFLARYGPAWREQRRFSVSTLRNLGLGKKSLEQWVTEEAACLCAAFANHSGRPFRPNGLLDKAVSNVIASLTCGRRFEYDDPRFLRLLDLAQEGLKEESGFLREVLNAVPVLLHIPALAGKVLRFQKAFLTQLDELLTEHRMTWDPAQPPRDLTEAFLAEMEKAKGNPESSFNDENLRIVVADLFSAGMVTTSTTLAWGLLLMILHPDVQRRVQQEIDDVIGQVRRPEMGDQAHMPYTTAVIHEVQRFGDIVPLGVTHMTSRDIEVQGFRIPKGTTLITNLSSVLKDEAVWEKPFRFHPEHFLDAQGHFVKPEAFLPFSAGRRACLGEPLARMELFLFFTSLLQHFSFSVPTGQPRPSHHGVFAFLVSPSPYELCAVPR

[5] = Half life in po dosed Sprague-Dawley rat; format: ADME, organism-based; details: in vivo
[6] = Oral bioavailability in Sprague-Dawley rat; format: ADME, organism-based; details: in vivo

Row | SMILES | inhibition (Tyro3 (Mus musculus)) | further results
1 | O=C(c1cc2cc(F)ccc2[nH]1)N1C[C@@]2(CCN(C3CCCCC3)C2)c2ccccc21 | Active | 
2 | NC(=O)c1ccc2cc(C(=O)N3C[C@@]4(CCN(C5CCNC5)C4)c4ccccc43)[nH]c2c1 (stereo partly specified) | Active | 
3 | COc1ccc2cc(C(=O)N3C[C@@]4(CCN(C5CCNC5)C4)c4ccccc43)[nH]c2c1 (stereo partly specified) | Active | 
4 | O=C(c1cc2cc(Cl)ccc2[nH]1)N1C[C@@]2(CCN(C3CCCNC3)C2)c2ccccc21 (stereo partly specified) | Active | 
5 | CCN1CCCC(N2CC[C@@]3(CN(C(=O)c4cc5cc(F)ccc5[nH]4)c4ccccc43)C2)C1 (stereo partly specified) | Active | 
6 | O=C(c1cc2cc(Cl)ccc2[nH]1)N1C[C@@]2(CCN(C3CCNCC3)C2)c2ccccc21 | Active | 
7 | O=C(c1cc2cc(Cl)ccc2[nH]1)N1C[C@]2(CCN(C3CCNC3)C2)c2ccccc21 (stereo partly specified) |  | solubility [1]: 5.2 µM (≈ 2.19 µg/mL); half-life [2]: 1 h; CL/F [3]: 60 mL/min/kg; Vdss (Rattus norvegicus): 13 L/kg; Papp [4]: 0.03 ×10⁻⁶ cm/s; IC50 (Cytochrome P450 2D6): 14 nM; half-life [5]: 3.1 h; bioavailability [6]: 14%
8 | O=C(c1cc2cc(F)ccc2[nH]1)N1C[C@@]2(CCN(CC3CCCNC3)C2)c2ccccc21 (stereo partly specified) | Active | 
9 | COc1ccc2[nH]c(C(=O)N3C[C@@]4(CCN(C5CCNC5)C4)c4ccccc43)cc2c1 (stereo partly specified) | Active | 
10 | Cc1ccc(N2CC[C@]3(C2)CN(C(=O)c2cc4cc(F)ccc4[nH]2)c2ccccc23)cn1 | Active | 
11 | O=C(c1cc2cc(Cl)ccc2[nH]1)N1C[C@@]2(CCN(C3CCNC3)C2)c2ccccc21 (stereo partly specified) | Active | 
12 | O=C(c1cc2c(Cl)cccc2[nH]1)N1C[C@@]2(CCN(C3CCNC3)C2)c2ccccc21 (stereo partly specified) | Active | 
13 | Cc1ccc2[nH]c(C(=O)N3C[C@@]4(CCN(C5CCNC5)C4)c4ccccc43)cc2c1 (stereo partly specified) | Active | 
14 | O=C(c1cc2cc(F)ccc2[nH]1)N1C[C@@]2(CCN(C3CNC3)C2)c2ccccc21 | Active | 
